Activity calls are given as the source filed them. No cut-off for these calls is given here.
Legend:
[1] = system: HT-1080; assay: Antiinvasive activity in human HT1080 cells at 30 uM; assay type: functional
[2] = system: HT-1080; assay: Reduction of MMP2 mRNA level in human HT1080 cells at 1 uM after 24 hrs by RT-PCR analysis relative to control; assay type: functional, cell-based
[3] = target: Matrix metalloproteinase-9 (Homo sapiens) (UniProt P14780); assay: Inhibition of MMP9 activity in human HT1080 cells at 1 uM after 24 hrs; assay type: cell-based; details: HT-1080
[4] = system: HT-1080; assay: (§1) Toxicity in human HT1080 cells assessed as reduction of cell growth at 1 uM after 24 hrs; assay type: cell-based; details: ht-1080, 24 h, 1 µM
[5] = system: HT-1080; assay: Reduction of MMP9 mRNA level in human HT1080 cells at 1 uM after 24 hrs by RT-PCR analysis relative to control; assay type: functional
[6] = target: 72 kDa type IV collagenase (Homo sapiens) (UniProt P08253); assay: Inhibition of MMP2 activity in human HT1080 cells at 1 uM after 24 hrs; assay type: cell-based; details: HT-1080
[7] = system: HT-1080; assay: Induction of RECK mRNA expression in human HT1080 cells at 1 uM after 24 hrs by RT-PCR analysis relative to control; assay type: functional
[8] = system: HT-1080; assay: Antiinvasive activity in human HT1080 cells assessed as reduction of cell number at 1 uM after 22 hrs by matrigel invasion assay; assay type: functional
[9] = system: HT-1080; assay: Cytotoxicity against human HT1080 cells assessed as growth inhibition after 72 hrs by trypan blue dye exclusion assay; assay type: functional, cell-based; details: HT-1080, 72 h
[10] = system: HT-1080; assay: Induction of RECK protein expression in human HT1080 cells after 24 hrs by electrophoresis analysis relative to control; assay type: functional, cell-based
[11] = system: HT-1080; assay: Induction of apoptosis in human HT1080 cells assessed as increase in caspase-3 activity at 1 uM relative to control; assay type: functional, cell-based
[12] = system: HT-1080; assay: Cell cycle arrest in human HT1080 cells assessed as accumulation at S phase at 10 uM after 72 hrs using propidium iodide staining by FACS analysis relative to control; assay type: functional
[13] = system: HT-1080; assay: Cell cycle arrest in human HT1080 cells assessed as accumulation at G0/G1 phase at 10 uM after 72 hrs using propidium iodide staining by FACS analysis relative to control; assay type: functional
[14] = system: HT-1080; assay: Cell cycle arrest in human HT1080 cells assessed as accumulation at G2/M phase at 4 uM after 72 hrs using propidium iodide staining by FACS analysis relative to control; assay type: functional
[15] = system: HT-1080; assay: Cell cycle arrest in human HT1080 cells assessed as accumulation at S phase after 72 hrs using propidium iodide staining by FACS analysis; assay type: functional, cell-based
[16] = system: HT-1080; assay: Cell cycle arrest in human HT1080 cells assessed as accumulation at S phase at 4 uM after 72 hrs using propidium iodide staining by FACS analysis relative to control; assay type: functional
[17] = system: HT-1080; assay: Reduction of proMMP2 level in human HT1080 cells after 24 to 72 hrs by gelatin zymography analysis; assay type: functional, cell-based
[18] = Cytotoxicity against human HuCCT1 cells; assay type: functional, cell-based; details: HuCCT-1
[19] = system: HT-1080; assay: Induction of apoptosis in human HT1080 cells assessed as increase in caspase-3 activity at 10 uM relative to control; assay type: functional
[20] = system: HT-1080; assay: Induction of apoptosis in human HT1080 cells assessed as increase in caspase-3 activity at 4 uM relative to control; assay type: functional
[21] = system: HT-1080; assay: Cell cycle arrest in human HT1080 cells assessed as accumulation at G0/G1 phase at 4 uM after 72 hrs using propidium iodide staining by FACS analysis relative to control; assay type: functional
[22] = as §1; assay type: cell-based, HT-1080; details: HT1080 cells, read-out: Activity
[23] = system: HT-1080; assay: Cell cycle arrest in human HT1080 cells assessed as accumulation at G2/M phase at 10 uM after 72 hrs using propidium iodide staining by FACS analysis relative to control; assay type: functional
[24] = system: HT-1080; assay: Reduction of MMP9 level in human HT1080 cells after 24 to 72 hrs by gelatin zymography analysis; assay type: functional, cell-based
[25] = system: HT-1080; assay: Reduction of proMMP9 level in human HT1080 cells after 24 to 72 hrs by gelatin zymography analysis; assay type: functional, cell-based
[26] = system: HT-1080; assay: Cytotoxicity against human HT1080 cells assessed as growth inhibition at 4 to 10 uM after 72 hrs by trypan blue dye exclusion assay relative to control; assay type: functional
[27] = system: HT-1080; assay: Cell cycle arrest in human HT1080 cells assessed as accumulation at G2/M phase at 1 uM after 72 hrs using propidium iodide staining by FACS analysis relative to control; assay type: functional
[28] = system: HT-1080; assay: Cell cycle arrest in human HT1080 cells assessed as accumulation at G0/G1 phase at 1 uM after 72 hrs using propidium iodide staining by FACS analysis relative to control; assay type: functional
[29] = system: HT-1080; assay: Induction of RECK protein expression in human HT1080 cells at 4 uM after 24 hrs by electrophoresis analysis relative to control; assay type: functional
[30] = system: HT-1080; assay: Reduction of MMP2 level in human HT1080 cells after 24 to 72 hrs by gelatin zymography analysis; assay type: functional, cell-based
[31] = system: HT-1080; assay: Induction of RECK protein expression in human HT1080 cells at 1 uM after 24 hrs by electrophoresis analysis relative to control; assay type: functional
[32] = system: HT-1080; assay: Cell cycle arrest in human HT1080 cells assessed as accumulation at S phase at 1 uM after 72 hrs using propidium iodide staining by FACS analysis relative to control; assay type: functional
[33] = system: HT-1080; assay: Cytotoxicity against human HT1080 cells; assay type: functional, cell-based
[34] = system: HT-1080; assay: Antiinvasive activity in human HT1080 cells at 50 uM; assay type: functional

Chain of 72 kDa type IV collagenase (Homo sapiens) (P08253 110-660 limits assumed): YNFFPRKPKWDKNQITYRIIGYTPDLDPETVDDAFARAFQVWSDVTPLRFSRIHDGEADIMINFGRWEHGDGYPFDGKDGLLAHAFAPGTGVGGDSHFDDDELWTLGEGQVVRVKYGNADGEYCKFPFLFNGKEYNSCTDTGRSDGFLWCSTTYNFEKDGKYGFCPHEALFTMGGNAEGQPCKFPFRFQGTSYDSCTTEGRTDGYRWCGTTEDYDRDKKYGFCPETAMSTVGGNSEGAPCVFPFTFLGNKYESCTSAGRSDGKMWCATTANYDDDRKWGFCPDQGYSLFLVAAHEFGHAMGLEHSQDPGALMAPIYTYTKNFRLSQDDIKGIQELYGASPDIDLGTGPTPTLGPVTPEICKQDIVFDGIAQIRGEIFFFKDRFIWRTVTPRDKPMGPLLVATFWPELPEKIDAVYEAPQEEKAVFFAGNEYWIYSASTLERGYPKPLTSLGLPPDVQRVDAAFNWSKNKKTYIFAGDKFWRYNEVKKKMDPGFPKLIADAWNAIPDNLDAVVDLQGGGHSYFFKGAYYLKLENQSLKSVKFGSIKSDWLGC
Chain of Matrix metalloproteinase-9 (Homo sapiens) (P14780 whole entry): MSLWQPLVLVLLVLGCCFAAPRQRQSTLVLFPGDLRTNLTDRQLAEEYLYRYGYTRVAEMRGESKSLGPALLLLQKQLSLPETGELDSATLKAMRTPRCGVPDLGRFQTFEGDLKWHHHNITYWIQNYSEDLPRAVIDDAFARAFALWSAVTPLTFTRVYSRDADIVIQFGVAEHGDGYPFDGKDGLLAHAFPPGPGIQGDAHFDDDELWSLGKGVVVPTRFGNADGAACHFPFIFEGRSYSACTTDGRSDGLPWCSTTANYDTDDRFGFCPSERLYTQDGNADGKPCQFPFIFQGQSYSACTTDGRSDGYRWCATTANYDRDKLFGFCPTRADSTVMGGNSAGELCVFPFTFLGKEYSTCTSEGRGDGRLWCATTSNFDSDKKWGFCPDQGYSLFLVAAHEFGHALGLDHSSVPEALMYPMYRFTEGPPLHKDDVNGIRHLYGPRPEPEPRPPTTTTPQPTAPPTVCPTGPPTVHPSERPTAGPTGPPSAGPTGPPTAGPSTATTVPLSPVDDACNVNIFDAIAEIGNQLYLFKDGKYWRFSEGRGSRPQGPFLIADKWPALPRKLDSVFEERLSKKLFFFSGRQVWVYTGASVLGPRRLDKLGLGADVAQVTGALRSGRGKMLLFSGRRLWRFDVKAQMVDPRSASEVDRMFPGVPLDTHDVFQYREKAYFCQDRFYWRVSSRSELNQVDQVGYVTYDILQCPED

With `C[C@@H](N)c1ccc(C(=O)Nc2ccncc2)cc1.Cl` the Activity [1] was 50%.

With `CC1=C(/C=C/C(C)=C/C=C/C(C)=C/C(=O)O)C(C)(C)CCC1` [TRETINOIN] the Activity [2] was “inactive”, the inhibition [3] was “inactive” and the Activity [4] was “Non-toxic”. For the same molecule, the Activity [5] was “inactive”, the inhibition [6] was “inactive” and the Activity [7] was “inactive”. For the same molecule, the Activity [8] was “inactive”.

With `CCCCCCCCCCCCNc1ccc(O)cc1` the IC50 [9] was 1000 nM, the Activity [2] was “inactive” and the inhibition [3] was 50%. The Activity [10] was “Dose-dependent effect”, the Activity [11] was “inactive” and the Activity [12] was 19.1%. The Activity [13] was 50.6%, the Activity [14] was 30.4% and the Activity [15] was “Dose-dependent effect”. For the same molecule, the Activity [16] was 11%, the Activity [17] was “Dose-dependent effect” and the IC50 [17] was greater than 10000 nM. For the same molecule, the IC50 [18] was 2000 nM, the “fold change (FC)” value [19] was 4.8 and the “fold change (FC)” value [20] was 3.2. For the same molecule, the Activity [21] was 58.5%, the inhibition at 24 h, 1 µM [22] was 8% and the Activity [23] was 30.3%. For the same molecule, the Activity [24] was “Dose-dependent effect”, the IC50 [24] was 700 nM and the Activity [25] was “Dose-dependent effect”. The IC50 [25] was 900 nM, the “growth inhibition (GI)” value [26] was 77% and the Activity [5] was 60%. The Activity [27] was 28.2%, the inhibition [6] was “inactive” and the Activity [28] was 63.1%. The Activity [29] was 175%, the Activity [7] was 162% and the Activity [30] was “Dose-dependent effect”. For the same molecule, the IC50 [30] was 2400 nM, the Activity [8] was 80% and the Activity [31] was 140%. It also gave an Activity [32] of 8.7%.

`COc1cc(C2Oc3cc([C@H]4Oc5cc(O)cc(O)c5C(=O)[C@@H]4O)ccc3OC2CO)ccc1O` (some centres undefined) [SILIBININ] gave an IC50 [33] of 400000 nM.

For `CC1=C(/C=C/C(C)=C/C=C/C(C)=C/C(=O)Nc2ccc(O)cc2)C(C)(C)CCC1` [FENRETINIDE], the Activity [2] was “inactive”, the inhibition [3] was “inactive” and the inhibition at 24 h, 1 µM [22] was 4%. The Activity [5] was “inactive”, the inhibition [6] was “inactive” and the Activity [7] was “inactive”. For the same molecule, the Activity [8] was 20%.

`COC(=O)[C@H](CCSC)NC(=O)c1ccc(CNCc2c[nH]cn2)cc1-c1ccccc1C` gave an IC50 [33] greater than 50000 nM.

Work on `O=S(=O)(c1cccc2cnccc12)N1CCCNCC1` [FASUDIL] yielded an Activity [34] of 26%.

Molecule `O=S(=O)(c1cccc2c(O)nccc12)N1CCCNCC1` [HYDROXYFASUDIL] has an Activity [34] of 50%.

`O=C(CCCCCCSc1ccc2ccccc2c1)NO` gave an IC50 [33] of 3000 nM.
